Measurements as given in US20100184802A1, “Bicycloheteroaryl Compounds as P2X7 Modulators and Uses Thereof” (priority 2006, published 2010).

Target: T1, P2X7 receptor (IL-1β release from THP-1 cells) (Homo sapiens, UniProt Q99572)
T1 construct: host or cells: THP-1 cells differentiated with LPS and IFN-γ
T1 sequence (Q99572 1-595): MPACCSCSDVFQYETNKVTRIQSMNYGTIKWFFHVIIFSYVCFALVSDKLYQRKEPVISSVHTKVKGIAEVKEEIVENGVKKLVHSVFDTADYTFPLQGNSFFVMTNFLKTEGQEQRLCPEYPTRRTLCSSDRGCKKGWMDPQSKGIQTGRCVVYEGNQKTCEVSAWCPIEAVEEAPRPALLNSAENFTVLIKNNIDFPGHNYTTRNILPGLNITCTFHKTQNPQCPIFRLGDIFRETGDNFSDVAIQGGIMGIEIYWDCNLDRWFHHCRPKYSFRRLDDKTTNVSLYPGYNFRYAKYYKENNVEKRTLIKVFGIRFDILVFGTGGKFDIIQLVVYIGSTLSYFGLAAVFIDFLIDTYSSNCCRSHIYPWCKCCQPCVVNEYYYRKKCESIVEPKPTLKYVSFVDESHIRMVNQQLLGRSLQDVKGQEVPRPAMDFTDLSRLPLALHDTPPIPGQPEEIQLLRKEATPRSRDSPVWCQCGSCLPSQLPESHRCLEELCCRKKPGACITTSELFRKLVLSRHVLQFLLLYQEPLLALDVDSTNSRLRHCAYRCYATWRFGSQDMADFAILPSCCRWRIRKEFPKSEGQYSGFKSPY
Test: IL-1β release assay in differentiated THP-1 cells stimulated with BzATP (Example 9)
Format: cell-based
Details: for inhibition at 0.1 µM: 0.1 μM concentration; for inhibition at 0.1 µM / inhibition at 0.3 µM: read-out: IL-1β % Inhib. @ 0.3 or 0.1 μM; for IC50: released IL-1β as in Example 9, four parameter logistic fit
Experimental: The cells are then pretreated for 30 minutes with the compound of interest at the appropriate concentration in RPMI media containing 100 IU/mL penicillin, 100 ug/mL streptomycin. […] 30 uL of cell supernatant is then collected and IL-1β levels determined via ELISA (R&D systems Cat. #HSLB50) according to manufacturer's recommendations using the Tecan Safire plate reader. Background adjusted IL-1β levels of drug treated and non-treated cells are used to calculate the percent inhibition.
The compounds set forth in Table 1 were tested for activity in a cellular model as described herein. […] Measurements were made and IC50 values, presented in Table 2, below, were determined by fitting the data to a four parameter logistic equation using GraphPad Prism software (GraphPad Software, Inc). The equation may be expressed by the following formula:
Y=Bottom+(Top−Bottom)/(1+10̂((Log EC50−X)*HillSlope))
Where X is the logarithm of concentration, Y is the response and Y starts at Bottom and goes to Top with a sigmoid shape.

[1] = 0.3 μM concentration, BzATP 250 uM

| SMILES | inhibition at 0.1 µM (BzATP 250 uM) [%] | inhibition at 0.3 µM [1] [%] | IC50 [nM] | IL-1β % Inhib. @ 0.3 or 0.1 μM [1] |
| --- | --- | --- | --- | --- |
| C[C@H]1CC[C@H](C(=O)Nc2cccc3c(=O)n(CC4(O)CCCCC4)ccc23)CC1 [Compound 539] | 0 to 25 |  |  |  |
| NC(=O)Cn1ccc2c(NC(=O)CC3(O)CCCCCC3)cccc2c1=O [Compound 562] |  | 26 to 50 | 427 |  |
| CC(C)[C@H](C(N)=O)n1ccc2c(NC(=O)CC3CCCCCC3)cccc2c1=O [Compound 597, (R)-2-[5-(2-Cycloheptyl-acetylamino)-1-oxo-1H-isoquinolin-2-yl]-3-methyl-butyramide] |  | > 76 | 2.38 |  |
| CC(O)Cn1ccc2c(NC(=O)CC3C[C@@H]4CC[C@H]3C4)cccc2c1=O (some centres unmarked) [Compound 564] | 51 to 75 |  |  |  |
| C[C@H](CO)N1CCc2c(NC(=O)CC34CC5CC(C)(CC(C)(C5)C3)C4)cccc2C1=O [Compound 534] |  | > 76 | 11.5 |  |
| C[C@H](C(N)=O)n1ccc2c(NC(=O)CC34CC5CC(CC(O)(C5)C3)C4)cccc2c1=O [Compound 581] |  | > 76 | 48.2 |  |
| C[C@@H](C(N)=O)n1ccc2c(NC(=O)CC3CCCCCC3)cccc2c1=O [Compound 554] |  | > 76 | 12.3 |  |
| CC(C)(C)OC(=O)N1CCC(C(=O)Nc2cccc3c(=O)n(CCO)ccc23)CC1 [Compound 537] |  | 0 to 25 | > 1000 |  |
| C[C@@H](CO)n1ccc2c(NC(=O)CC34CC5CC(CC(C5)C3)C4)cccc2c1=O [Compound 521] |  | > 76 | 0.315 |  |
| O=C(CC1CCCCCC1)Nc1cccc2c(=O)n(C[C@H]3CCCN3)ccc12 [Compound 576] |  | > 76 |  |  |
| CC(C)(O)Cn1ccc2c(NC(=O)C3C[C@@H]4CC[C@H]3C4)cccc2c1=O (some centres unmarked) [Compound 571] | 26 to 50 |  |  |  |
| C[C@H](C(N)=O)n1ccc2c(NC(=O)CC3CC(C)(C)CC(C)(C)C3)cccc2c1=O [Compound 588] |  | > 76 | 0.929 |  |
| CC(C)(CO)n1ccc2c(NC(=O)CC3CCCCCC3)cccc2c1=O [Compound 614] |  | > 76 | 91.4 |  |
| O=C(CC12CC3CC(CC(C3)C1)C2)Nc1cccc2c(=O)n(CC3CCCN3)ccc12 (centres unmarked) [Compound 504] |  | > 76 | 1.56 |  |
| O=C(CC12CC3CC(CC(C3)C1)C2)Nc1cccc2c1CCN(CCO)C2=O [Compound 549, 2-Adamantan-1-yl-N-[2-(2-hydroxy-ethyl)-1-oxo-1,2,3,4-tetrahydro-isoquinolin-5-yl]-acetamide] |  | > 76 | 1.37 |  |
| C[C@H](C(N)=O)n1ccc2c(NC(=O)[C@H](C)C3CCCCCC3)cccc2c1=O [Compound 608] |  | > 76 | 70.8 |  |
| NC(=O)Cn1ccc2c(NC(=O)CC3CCCCCC3)cccc2c1=O [Compound 561, 2-(5-(2-Cycloheptyl-acetylamino)-1-oxo-1H-isoquinolin-2-yl)-acetamide] |  | > 76 | 38.2 |  |
| O=C(CC1CCCCCC1)Nc1cccc2c(=O)n(C(CO)CO)ccc12 [Compound 560, 2-Cycloheptyl-N-[2-(2-hydroxy-1-hydroxymethyl-ethyl)-1-oxo-1,2-dihydro-isoquinolin-5-yl]-acetamide] |  | > 76 | 75.6 |  |
| O=C(CC1(O)CCCCCC1)Nc1cccc2c(=O)n(C(CO)CO)ccc12 [Compound 552] |  | 0 to 25 | 760 |  |
| CC(C)(O)Cn1ccc2c(NC(=O)CC3C[C@@H]4CC[C@H]3C4)cccc2c1=O (some centres unmarked) [Compound 569] | 26 to 50 |  |  |  |

| SMILES | inhibition at 0.1 µM (BzATP 250 uM) [%] | inhibition at 0.3 µM [1] [%] | IC50 [nM] | IL-1β % Inhib. @ 0.3 or 0.1 μM [1] |
| --- | --- | --- | --- | --- |
| NC(=O)[C@H](CO)n1ccc2c(NC(=O)CC3CCCCCC3)cccc2c1=O [Compound 575, (S)-2-[5-(2-Cycloheptyl-acetylamino)-1-oxo-1H-isoquinolin-2-yl]-3-hydroxy-propionamide] |  | > 76 | 40.8 |  |
| CC1(C)CC(C)(C)CC(O)(CC(=O)Nc2cccc3c(=O)n(CCO)ccc23)C1 [Compound 546] |  | > 76 | 135 |  |
| C[C@@H](CO)N1CCc2c(NC(=O)CC34CC5CC(CC(C5)C3)C4)cccc2C1=O [Compound 527] |  | > 76 | 0.149 |  |
| CC(O)Cn1ccc2c(NC(=O)[C@H]3CC[C@H](C)CC3)cccc2c1=O (some centres unmarked) [Compound 563] | 0 to 25 |  |  |  |
| CC(C)[C@H](C(N)=O)n1ccc2c(NC(=O)CC34CC5CC(CC(C5)C3)C4)cccc2c1=O [Compound 528] |  | > 76 | 0.181 |  |
| CC(C)(C)OC(=O)N1CCC(CC(=O)Nc2cccc3c(=O)n(CCO)ccc23)CC1 [Compound 532] |  | 0 to 25 | > 1000 |  |
| C[C@H](CO)n1ccc2c(NC(=O)CC34CC5CC(C)(CC(C)(C5)C3)C4)cccc2c1=O [Compound 525] |  | > 76 | 3.23 |  |
| CC1(C)CC(C)(C)CC(O)(CC(=O)Nc2cccc3c(=O)n(C(CO)CO)ccc23)C1 [Compound 573] |  | > 76 | 81.3 |  |
| CC(C)[C@H](C(=O)NC1CC1)n1ccc2c(NC(=O)CC34CC5CC(CC(C5)C3)C4)cccc2c1=O [Compound 594] |  | 26 to 50 | 303 |  |
| CC(O)Cn1ccc2c(NC(=O)C34C[C@@H]5C[C@@H](C[C@@H]3C5)C4)cccc2c1=O (some centres unmarked) [Compound 566] | 0 to 25 |  |  |  |
| CC(C)[C@H](CO)n1ccc2c(NC(=O)CC3CCCCCC3)cccc2c1=O [Compound 591, 2-Cycloheptyl-N-[2-((R)-1-hydroxymethyl-2-methyl-propyl)-1-oxo-1,2-dihydro-isoquinolin-5-yl]-acetamide] |  | > 76 | 3.42 |  |
| CC(C)[C@H](C(N)=O)n1ccc2c(NC(=O)CC34CC5CC(CC(C5)C3)C4)cccc2c1=O [Compound 536] |  |  | 0.202 | ++++ (compound exhibited 76% or greater inhibition at 0.3 μM concentration) |
| C[C@@H](CO)N1CCc2c(NC(=O)CC34CC5CC(C)(CC(C)(C5)C3)C4)cccc2C1=O [Compound 535] |  | > 76 | 0.341 |  |
| NC(=O)C(CO)n1ccc2c(NC(=O)CC3CCCCCC3)cccc2c1=O (centres unmarked) [Compound 551, 2-[5-(2-Cycloheptyl-acetylamino)-1-oxo-1H-isoquinolin-2-yl]-3-hydroxy-propionamide] |  | > 76 | 32.7 |  |
| O=C(CC1CCCCC1)Nc1cccc2c(=O)n(CCO)ccc12 [Compound 545] |  | 0 to 25 | 906 |  |
| CNC(=O)[C@@H](C(C)C)n1ccc2c(NC(=O)CC34CC5CC(CC(C5)C3)C4)cccc2c1=O [Compound 592, (R)-2-[5-(2-Adamantan-1-yl-acetylamino)-1-oxo-1H-isoquinolin-2-yl]-3,N-dimethyl-butyramide] |  | > 76 | 1.21 |  |
| C[C@H](C(=O)NC1CC1)n1ccc2c(NC(=O)CC34CC5CC(CC(C5)C3)C4)cccc2c1=O [Compound 598, (R)-2-[5-(2-Adamantan-1-yl-acetyl-amino)-1-oxo-1H-isoquinolin-2-yl]-N-cyclopropyl-propionamide] |  | > 76 | 0.698 |  |
| NC(=O)CCn1ccc2c(NC(=O)CC34CC5CC(CC(C5)C3)C4)cccc2c1=O [Compound 510] |  | > 76 | 1.04 |  |
| C[C@H](C(=O)Nc1cccc2c(=O)n([C@H](C)C(N)=O)ccc12)C1CCCCCC1 [Compound 609] |  | > 76 | 6.16 |  |
